Data reported in the CheMixHub viscosity set.

Assay: xn = mol fraction of the nth substance listed

NC=O + CCO
Conditions | viscosity [mPa·s]
293.15 K, 101 kPa, x1 = 0.0698 | 1.251
298.15 K, 100 kPa, x1 = 0.08099 | 1.17
298.15 K, 100 kPa, x1 = 0.141 | 1.24
298.15 K, 100 kPa, x1 = 0.1644 | 1.27
298.15 K, 100 kPa, x1 = 0.2196 | 1.37
298.15 K, 100 kPa, x1 = 0.25 | 1.43
298.15 K, 100 kPa, x1 = 0.2924 | 1.5
298.15 K, 100 kPa, x1 = 0.3698 | 1.66
298.15 K, 100 kPa, x1 = 0.4031 | 1.73
298.15 K, 100 kPa, x1 = 0.4124 | 1.74
298.15 K, 100 kPa, x1 = 0.5124 | 1.98
298.15 K, 100 kPa, x1 = 0.5644 | 2.11
298.15 K, 100 kPa, x1 = 0.6278 | 2.29
298.15 K, 100 kPa, x1 = 0.7077 | 2.5
298.15 K, 100 kPa, x1 = 0.7726 | 2.67
298.15 K, 100 kPa, x1 = 0.8608 | 2.91
298.15 K, 100 kPa, x1 = 0.9558 | 3.19
298.15 K, 101 kPa, x1 = 0.0698 | 1.152
298.15 K, 101 kPa, x1 = 0.1005 | 1.229
298.15 K, 101 kPa, x1 = 0.1991 | 1.376
298.15 K, 101 kPa, x1 = 0.3014 | 1.563
298.15 K, 101 kPa, x1 = 0.4071 | 1.816
298.15 K, 101 kPa, x1 = 0.4991 | 2.01
298.15 K, 101 kPa, x1 = 0.6093 | 2.259
298.15 K, 101 kPa, x1 = 0.7024 | 2.515
298.15 K, 101 kPa, x1 = 0.8108 | 2.782
298.15 K, 101 kPa, x1 = 0.9 | 3.054
303.15 K, 101 kPa, x1 = 0.0698 | 1.043
303.15 K, 101.3 kPa, x1 = 0.0716 | 0.97
303.15 K, 101.3 kPa, x1 = 0.1365 | 1.03
303.15 K, 101.3 kPa, x1 = 0.2357 | 1.1
303.15 K, 101.3 kPa, x1 = 0.3142 | 1.3
303.15 K, 101.3 kPa, x1 = 0.3842 | 1.4
303.15 K, 101.3 kPa, x1 = 0.4597 | 1.5
303.15 K, 101.3 kPa, x1 = 0.5389 | 1.6
303.15 K, 101.3 kPa, x1 = 0.609 | 1.8
303.15 K, 101.3 kPa, x1 = 0.6872 | 1.9
303.15 K, 101.3 kPa, x1 = 0.7741 | 2.1
303.15 K, 101.3 kPa, x1 = 0.7928 | 2.2
303.15 K, 101.3 kPa, x1 = 0.926 | 2.6
308.15 K, 101 kPa, x1 = 0.0698 | 0.9456
308.15 K, 101.3 kPa, x1 = 0.0716 | 0.89
308.15 K, 101.3 kPa, x1 = 0.1365 | 0.93
308.15 K, 101.3 kPa, x1 = 0.2357 | 1.05
308.15 K, 101.3 kPa, x1 = 0.3142 | 1.1
308.15 K, 101.3 kPa, x1 = 0.3842 | 1.2
308.15 K, 101.3 kPa, x1 = 0.4597 | 1.3
308.15 K, 101.3 kPa, x1 = 0.5389 | 1.5
308.15 K, 101.3 kPa, x1 = 0.609 | 1.5
308.15 K, 101.3 kPa, x1 = 0.6872 | 1.7
308.15 K, 101.3 kPa, x1 = 0.7741 | 1.8
308.15 K, 101.3 kPa, x1 = 0.7928 | 1.9
308.15 K, 101.3 kPa, x1 = 0.926 | 2.3
313.15 K, 101 kPa, x1 = 0.0698 | 0.8712
313.15 K, 101 kPa, x1 = 0.1005 | 0.916
313.15 K, 101 kPa, x1 = 0.1991 | 1.016
313.15 K, 101 kPa, x1 = 0.3014 | 1.145
313.15 K, 101 kPa, x1 = 0.4071 | 1.319
313.15 K, 101 kPa, x1 = 0.4991 | 1.465
313.15 K, 101 kPa, x1 = 0.6093 | 1.622
313.15 K, 101 kPa, x1 = 0.7024 | 1.8
313.15 K, 101 kPa, x1 = 0.8108 | 1.986
313.15 K, 101 kPa, x1 = 0.9 | 2.174
313.15 K, 101.3 kPa, x1 = 0.0716 | 0.8
313.15 K, 101.3 kPa, x1 = 0.1365 | 0.85
313.15 K, 101.3 kPa, x1 = 0.2357 | 0.95
313.15 K, 101.3 kPa, x1 = 0.3142 | 1.04
313.15 K, 101.3 kPa, x1 = 0.3842 | 1.1
313.15 K, 101.3 kPa, x1 = 0.4597 | 1.2
313.15 K, 101.3 kPa, x1 = 0.5389 | 1.3
313.15 K, 101.3 kPa, x1 = 0.609 | 1.4
313.15 K, 101.3 kPa, x1 = 0.6872 | 1.5
313.15 K, 101.3 kPa, x1 = 0.7741 | 1.7
313.15 K, 101.3 kPa, x1 = 0.7928 | 1.7
313.15 K, 101.3 kPa, x1 = 0.926 | 2
318.15 K, 101 kPa, x1 = 0.0698 | 0.8052
318.15 K, 101.3 kPa, x1 = 0.0716 | 0.73
318.15 K, 101.3 kPa, x1 = 0.1365 | 0.77
318.15 K, 101.3 kPa, x1 = 0.2357 | 0.86
318.15 K, 101.3 kPa, x1 = 0.3142 | 0.94
318.15 K, 101.3 kPa, x1 = 0.3842 | 1.02
318.15 K, 101.3 kPa, x1 = 0.4597 | 1.1
318.15 K, 101.3 kPa, x1 = 0.5389 | 1.2
318.15 K, 101.3 kPa, x1 = 0.609 | 1.2
318.15 K, 101.3 kPa, x1 = 0.6872 | 1.3
318.15 K, 101.3 kPa, x1 = 0.7741 | 1.5
318.15 K, 101.3 kPa, x1 = 0.7928 | 1.5
318.15 K, 101.3 kPa, x1 = 0.926 | 1.8
323.15 K, 101.3 kPa, x1 = 0.0716 | 0.64
323.15 K, 101.3 kPa, x1 = 0.1365 | 0.68
323.15 K, 101.3 kPa, x1 = 0.2357 | 0.75
323.15 K, 101.3 kPa, x1 = 0.3142 | 0.83
323.15 K, 101.3 kPa, x1 = 0.3842 | 0.89
323.15 K, 101.3 kPa, x1 = 0.4597 | 0.93
323.15 K, 101.3 kPa, x1 = 0.5389 | 0.98
323.15 K, 101.3 kPa, x1 = 0.609 | 1.04
323.15 K, 101.3 kPa, x1 = 0.6872 | 1.1
323.15 K, 101.3 kPa, x1 = 0.7741 | 1.2
323.15 K, 101.3 kPa, x1 = 0.7928 | 1.2
323.15 K, 101.3 kPa, x1 = 0.926 | 1.5
